According to ChEMBL document CHEMBL1154064, “Synthesis and DNA cleavage activity of 2-hydrazinyl-1,4,5,6-tetrahydropyrimidine containing hydroxy group” (2009):
Activity calls are given as the source filed them. No cut-off for these calls is given here.

Key:
Nucleic Acid [1] = test: Binding affinity to Escherichia coli pUC19 DNA assessed as form 2 DNA level at 0.463 mM after 9.07 hrs by agarose gel electrophoresis; assay type: nucleic-acid assay
Nucleic Acid [2] = test: Binding affinity to Escherichia coli pUC19 DNA assessed as form 1 DNA level at 0.175 mM after 29.33 hrs by agarose gel electrophoresis; assay type: nucleic-acid assay
Nucleic Acid [3] = test: Binding affinity to Escherichia coli pUC19 DNA assessed as form 2 DNA level at 0.463 mM after 4.95 hrs by agarose gel electrophoresis; assay type: nucleic-acid assay
Nucleic Acid [4] = test: Binding affinity to Escherichia coli pUC19 DNA assessed as form 1 DNA level at 0.320 mM after 13.07 hrs by agarose gel electrophoresis; assay type: nucleic-acid assay
Nucleic Acid [5] = test: Binding affinity to Escherichia coli pUC19 DNA assessed as form 1 DNA level at 0.175 mM after 13.07 hrs by agarose gel electrophoresis; assay type: nucleic-acid assay
Nucleic Acid [6] = test: Binding affinity to Escherichia coli pUC19 DNA assessed as form 2 DNA level at 0.130 mM by agarose gel electrophoresis; assay type: nucleic-acid assay
Nucleic Acid [7] = test: Binding affinity to Escherichia coli pUC19 DNA assessed as form 2 DNA level at 0.349 mM after 28.18 hrs by agarose gel electrophoresis; assay type: nucleic-acid assay
Nucleic Acid [8] = test: Binding affinity to Escherichia coli pUC19 DNA assessed as form 2 DNA level at 0.175 mM after 25.35 hrs by agarose gel electrophoresis; assay type: nucleic-acid assay
Nucleic Acid [9] = test: Binding affinity to Escherichia coli pUC19 DNA assessed as form 2 DNA level at 0.130 mM after 5.42 hrs by agarose gel electrophoresis; assay type: nucleic-acid assay
Nucleic Acid [10] = test: Binding affinity to Escherichia coli pUC19 DNA assessed as form 2 DNA level at 0.262 mM after 24.08 hrs by agarose gel electrophoresis; assay type: nucleic-acid assay
Nucleic Acid [11] = test: Binding affinity to Escherichia coli pUC19 DNA assessed as form 2 DNA level at 0.349 mM after 26.15 hrs by agarose gel electrophoresis; assay type: nucleic-acid assay
HL-60 = test: Growth inhibition of human HL60 cells at 1000 uM after 72 hrs by MTT assay; assay type: functional; parameters: scale not given: the % may be the effect or the level left
Nucleic Acid [12] = test: Binding affinity to Escherichia coli pUC19 DNA assessed as form 1 DNA level at 0.349 mM after 23.02 hrs by agarose gel electrophoresis; assay type: nucleic-acid assay
Nucleic Acid [13] = test: Binding affinity to Escherichia coli pUC19 DNA assessed as form 1 DNA level at 0.463 mM after 25.35 hrs by agarose gel electrophoresis; assay type: nucleic-acid assay
Nucleic Acid [14] = test: Binding affinity to Escherichia coli pUC19 DNA assessed as form 1 DNA level at 0.175 mM after 31.48 hrs by agarose gel electrophoresis; assay type: nucleic-acid assay
Nucleic Acid [15] = test: Binding affinity to Escherichia coli pUC19 DNA assessed as form 1 DNA level at 0.349 mM after 28.18 hrs by agarose gel electrophoresis; assay type: nucleic-acid assay
Nucleic Acid [16] = test: Binding affinity to Escherichia coli pUC19 DNA assessed as form 2 DNA level at 0.463 mM after 13.07 hrs by agarose gel electrophoresis; assay type: nucleic-acid assay
Nucleic Acid [17] = test: Binding affinity to Escherichia coli pUC19 DNA assessed as form 2 DNA level at 0.698 mM after 23.80 hrs by agarose gel electrophoresis; assay type: nucleic-acid assay
Nucleic Acid [18] = test: Binding affinity to Escherichia coli pUC19 DNA assessed as form 1 DNA level at 0.698 mM after 12.13 hrs by agarose gel electrophoresis; assay type: nucleic-acid assay
Nucleic Acid [19] = test: Binding affinity to Escherichia coli pUC19 DNA assessed as form 2 DNA level at 0.175 mM after 27.33 hrs by agarose gel electrophoresis; assay type: nucleic-acid assay
Nucleic Acid [20] = test: Binding affinity to Escherichia coli pUC19 DNA assessed as form 1 DNA level at 0.262 mM after 27.07 hrs by agarose gel electrophoresis; assay type: nucleic-acid assay
Nucleic Acid [21] = test: Binding affinity to Escherichia coli pUC19 DNA assessed as form 2 DNA level at 0.320 mM after 23.12 hrs by agarose gel electrophoresis; assay type: nucleic-acid assay
Nucleic Acid [22] = test: Binding affinity to Escherichia coli pUC19 DNA assessed as form 1 DNA level at 0.262 mM by agarose gel electrophoresis; assay type: nucleic-acid assay
Nucleic Acid [23] = test: Binding affinity to Escherichia coli pUC19 DNA assessed as form 1 DNA level at 0.130 mM after 5.42 hrs by agarose gel electrophoresis; assay type: nucleic-acid assay
Nucleic Acid [24] = test: Binding affinity to Escherichia coli pUC19 DNA assessed as form 2 DNA level at 0.130 mM after 11.30 hrs by agarose gel electrophoresis; assay type: nucleic-acid assay
Nucleic Acid [25] = test: Binding affinity to Escherichia coli pUC19 DNA assessed as form 2 DNA level at 0.698 mM after 3.72 hrs by agarose gel electrophoresis; assay type: nucleic-acid assay
Nucleic Acid [26] = test: Binding affinity to Escherichia coli pUC19 DNA assessed as form 2 DNA level at 0.320 mM after 9.07 hrs by agarose gel electrophoresis; assay type: nucleic-acid assay
Nucleic Acid [27] = test: Binding affinity to supercoiled Escherichia coli pUC19 DNA assessed as formation of nicked circular DNA at 1.10 mM at pH 6.0 for 24 hrs in presence of potassium iodide by agarose gel electrophoresis; assay type: nucleic-acid assay
Nucleic Acid [28] = test: Binding affinity to Escherichia coli pUC19 DNA assessed as form 2 DNA level at 0.698 mM after 12.13 hrs by agarose gel electrophoresis; assay type: nucleic-acid assay
Nucleic Acid [29] = test: Binding affinity to supercoiled Escherichia coli pUC19 DNA assessed as formation of nicked circular DNA at 1.10 mM at pH 6.0 for 24 hrs in presence of tertiary butyl hydroxide by agarose gel electrophoresis; assay type: nucleic-acid assay
Nucleic Acid [30] = test: Binding affinity to Escherichia coli pUC19 DNA assessed as form 2 DNA level at 0.463 mM after 27.33 hrs by agarose gel electrophoresis; assay type: nucleic-acid assay
Nucleic Acid [31] = test: Binding affinity to Escherichia coli pUC19 DNA assessed as form 1 DNA level at 0.698 mM by agarose gel electrophoresis; assay type: nucleic-acid assay
Nucleic Acid [32] = test: Binding affinity to Escherichia coli pUC19 DNA assessed as form 2 DNA level at 0.463 mM after 29.33 hrs by agarose gel electrophoresis; assay type: nucleic-acid assay
Nucleic Acid [33] = test: Binding affinity to Escherichia coli pUC19 DNA assessed as form 2 DNA level at 0.349 mM after 24.08 hrs by agarose gel electrophoresis; assay type: nucleic-acid assay
Nucleic Acid [34] = test: Binding affinity to Escherichia coli pUC19 DNA assessed as form 2 DNA level at 0.130 mM after 14 hrs by agarose gel electrophoresis; assay type: nucleic-acid assay
Nucleic Acid [35] = test: Binding affinity to Escherichia coli pUC19 DNA assessed as form 1 DNA level at 0.262 mM after 28.18 hrs by agarose gel electrophoresis; assay type: nucleic-acid assay
Nucleic Acid [36] = test: Binding affinity to Escherichia coli pUC19 DNA assessed as form 2 DNA level at 0.698 mM after 8.45 hrs by agarose gel electrophoresis; assay type: nucleic-acid assay
Nucleic Acid [37] = test: Binding affinity to Escherichia coli pUC19 DNA assessed as form 2 DNA level at 0.463 mM after 31.48 hrs by agarose gel electrophoresis; assay type: nucleic-acid assay
Nucleic Acid [38] = test: Binding affinity to Escherichia coli pUC19 DNA assessed as form 1 DNA level at 0.262 mM after 25.02 hrs by agarose gel electrophoresis; assay type: nucleic-acid assay
Nucleic Acid [39] = test: Binding affinity to Escherichia coli pUC19 DNA assessed as form 1 DNA level at 0.320 mM after 29.33 hrs by agarose gel electrophoresis; assay type: nucleic-acid assay

Cl.Cl.NNC1=NCC(O)CN1 (stereo not given)
Activity (Nucleic Acid [1]): 16.6%
Activity (Nucleic Acid [2]): 76.3%
Activity (Nucleic Acid [3]): 7.36%
Activity (Nucleic Acid [4]): 84.7%
Activity (Nucleic Acid [5]): 90.8%
Activity (Nucleic Acid [6]): 11.4%
Activity (Nucleic Acid [7]): 34.4%
Activity (Nucleic Acid [8]): 21.1%
Activity (Nucleic Acid [9]): 14.9%
Activity (Nucleic Acid [10]): 10.5%
Activity (Nucleic Acid [11]): 31.5%
Activity (HL-60): 91%
Activity (Nucleic Acid [12]): 72.3%
Activity (Nucleic Acid [13]): 60.2%
Activity (Nucleic Acid [14]): 74%
Activity (Nucleic Acid [15]): 65.6%
Activity (Nucleic Acid [16]): 22.5%
Activity (Nucleic Acid [17]): 45%
Activity (Nucleic Acid [18]): 77%
Activity (Nucleic Acid [19]): 24%
Activity (Nucleic Acid [20]): 84.7%
Activity (Nucleic Acid [21]): 73.4%
Activity (Nucleic Acid [22]): 97.2%
Activity (Nucleic Acid [23]): 85%
Activity (Nucleic Acid [24]): 21.8%
Activity (Nucleic Acid [25]): 5.08%
Activity (Nucleic Acid [26]): 91.7%
Activity (Nucleic Acid [27]): inactive
Activity (Nucleic Acid [28]): 23%
Activity (Nucleic Acid [29]): inactive
Activity (Nucleic Acid [30]): 40.6%
Activity (Nucleic Acid [31]): 98.1%
Activity (Nucleic Acid [32]): 42.2%
Activity (Nucleic Acid [33]): 28.1%
Activity (Nucleic Acid [34]): 24.4%
Activity (Nucleic Acid [35]): 84.1%
Activity (Nucleic Acid [36]): 15.2%
Activity (Nucleic Acid [37]): 48.9%
Activity (Nucleic Acid [38]): 88.1%
Activity (Nucleic Acid [39]): 59%
